From patent publication US20240058311A1, “USE OF SMO INHIBITOR IN PREPARATION OF DRUG FOR PREVENTING, DELAYING OR A[…] STENOSIS OF ART[…]” (JINAN UNIVERSITY, priority 2022, published 2024)

Key:
MCP-1 [1] = experiment: Western blot of MCP-1 in high glucose-treated HUVECs; type: cell-based, human; conditions: western blot (FIG. 7D, 7G)
TNF-α [2] = experiment: ELISA of TNF-α in peripheral blood plasma of rats; type: in vivo, rat; conditions: 1 mg/kg/day i.p., vs DM group (FIG. 14A)
Experimental: (§1) Peripheral blood samples of rats were collected, and plasma was separated. The concentration of cytokines (TNF-α, MCP-1, and IL-6) in plasma was determined using an ELISA kit (Jiangsu Enzyme Immune Industrial Co., Ltd., China).
(§2) Weight and blood glucose of rats were measured every week during the experiment, peripheral blood was extracted at specific time points (0, 1, and 14 weeks) for analysis, and AVF tissues were isolated at the end of the experiment for further analysis.

MCP-1 [3] = conditions: HUVECs
Experimental: (§8) The total RNA was extracted from HUVECs by the Trizol method. The cDNA was synthesized using Evo M-MLV RT Premix premix for qPCR. Fluorescence quantitative PCR was carried out using gene-specific primers (Table 1) and SYBR® Green Premix Pro Taq HS qPCR Kit. The relative mRNA expression quantity was calculated by 2^−ΔΔCT method.

PECs = experiment: Apoptosis detection in cultured PECs under high glucose; type: cell-based; conditions: high glucose conditions (FIG. 6E)
diabetic AVF rats [4] = experiment: Ultrasonic examination of AVF in diabetic AVF rats; type: in vivo, rat; conditions: 1 mg/kg/day i.p.
Experimental: (§3) Male SD rats which were aged 6-8 weeks and weighed 200-250 g were purchased from Beijing Vital River Laboratory Animal Technology Co., Ltd. In order to induce diabetes, the rats fasted overnight. Streptozotocin (STZ) (US, sigma, S0130-1G) (65 mg/kg) was dissolved in the citric acid buffer solution (0.1 M citric acid and 0.1 M sodium citrate) and single injected intraperitoneally into the abdominal cavity of the rats. The control group was administrated with an equal volume of the mediator-sodium citrate buffer (pH 4.5). Three days after the STZ injection, SD rats whose fasting-blood glucose (FPG) was greater than or equal to 300 mg/dL measured by Roche glucometer (Roche, Shanghai, China, LKBIO1500) were considered to have diabetes and used in follow-up experiments (FIG. 10).
After the construction of the diabetic model. SD rats were used to construct the AVF model. Rats were anesthetized by intraperitoneal injection of chloral hydrate (0.3 mL/100 g) and placed on the operating table during the operation. The iliac vascular area was exposed by cutting a 3 cm incision along the left inguinal fold and retracting abdominal muscle tissue and other soft tissue. The operation was carried out under a microscope, and the iliac artery and vein were separated from the surrounding fascia and nerves.

IL-6 [5] = experiment: ELISA of IL-6 in HUVEC culture supernatant; type: cell-based, human; conditions: HUVECs treated with 10 μM, ELISA (FIG. 8A)
Experimental: (§4) HUVECs were inoculated into a 6-well plate and treated with glucose of different concentrations. After 48 hours, the supernatant was collected, and the expression of inflammatory cytokines TNF-α, MCP-1. and IL-6 in the supernatant was detected using TNF-α, MCP-1 and IL-6 ELISA kits according to instructions of the kits, respectively.

TNF-α [6] = experiment: Western blot of TNF-α in vascular endothelial cells from rat AVF tissue; type: in vivo; conditions: vascular endothelial cells isolated from rat AVF tissue, 1 mg/kg/day i.p. (FIG. 14D, 14F)
Experimental: (§5) After the experiment was finished, the AVF tissues of the rats were collected and digested with enzymes to separate vascular endothelial cells. The vascular endothelial cells were lysed with the mixture liquid of RIPA lysis buffer and the phosphatase inhibitor and centrifuged to collect the supernatant. The protein concentration was measured, and the protein samples were prepared. Electrophoresis was carried out, and the membrane was transferred at 260 mA for 60 minutes. The transferred PVDF membranes were soaked with TBST buffer containing 5% skimmed milk powder, blocked at room temperature at a rotation rate of 60 rpm for 1 hour, and gently washed with TBST buffer 3 times, each time lasting 8-10 minutes. The corresponding diluents of primary antibodies (SMO, Cascpase3, TNF-α, MCP-1, and IL-6) were added, where the dilution ratio was determined according to the requirements of each antibody, and the PVDF membranes were incubated overnight in a shaker at 4° C. and cleaned with TBST buffer 3 times the next day, each time lasting 8-10 minutes. […] Development: Luminescent liquid A and liquid B were mixed according to the ratio of 1:1, the residual water on the PVDF membranes was gently absorbed with filter papers, the mixed luminescent liquid was uniformly dropped on the PVDF membranes, and the western blot results were analyzed on a gel imager.

SMO [7] = experiment: Western blot of SMO in vascular endothelial cells from rat AVF tissue; type: in vivo; conditions: vascular endothelial cells isolated from rat AVF tissue, 1 mg/kg/day i.p. (FIG. 14D, 14H)
Experimental: as §5

MCP-1 [8] = experiment: Immunohistochemistry of MCP-1 in vascular tissue around the fistula; type: in vivo, rat; conditions: 1 mg/kg/day i.p., vs DM group (FIG. 13)
Experimental: (§6) The paraffin-embedded tissue sections were stained with HE. Blood vessel tissue samples were dewaxed and rehydrated, and antigen retrieval and IHC staining were carried out. Tissue sections were blocked at room temperature for at least 1 hour and incubated overnight with antibodies of TNF-α, MCP1, IL-6, and SMO at 4° C. After careful cleaning, tissue sections were detected using a DAB-HRP method and observed with a microscope. Quantitative analysis was carried out according to the percentage of […] cells and the staining intensity.

MCP-1 [9] = experiment: ELISA of MCP-1 in HUVEC culture supernatant; type: cell-based, human; conditions: HUVECs treated with 10 μM, ELISA (FIG. 8C)
Experimental: as §4

SMO [10] = experiment: Immunohistochemistry of SMO in vascular tissue around the fistula; type: in vivo, rat; conditions: 1 mg/kg/day i.p., vs DM group (FIG. 13)
Experimental: as §6

HUVECs [11] = experiment: Apoptosis detection (AnnexinV-FITC/PI) in HUVECs under high glucose; type: cell-based, human; conditions: high glucose conditions (FIG. 6D)
Experimental: HUVECs were inoculated into a 6-well plate and treated with different concentrations of glucose. After 48 hours of culture, the cells were collected, washed twice with cold PBS, and suspended to 1×10^6 cells/mL with a labeling buffer (1×), and 5 μL of AnnexinV-FITC and 5 μL of propidium iodide (PI) were added. The cells were mixed evenly and incubated at room temperature away from light for about 15 minutes. 300 μL of labeling buffer was added to each tube, and samples were loaded within 1 hour. Annexin-V and PI were used to label early and late apoptotic cells, respectively. […] PI is a kind of nucleic acid dye, cannot penetrate the whole cell membrane, but can penetrate the cell membrane of cells in the middle and late apoptosis and dead cells to stain the nucleus.

MCP-1 [12] = experiment: Western blot of MCP-1 in vascular endothelial cells from rat AVF tissue; type: in vivo; conditions: vascular endothelial cells isolated from rat AVF tissue, 1 mg/kg/day i.p. (FIG. 14D, 14G)
Experimental: as §5

TNF-α [13] = experiment: Western blot of TNF-α in high glucose-treated HUVECs; type: cell-based, human; conditions: western blot (FIG. 7D, 7F)
HUVECs [14] = experiment: Lactate dehydrogenase (LDH) assay in HUVECs under high glucose; type: cell-based, human; conditions: HG, after intervention with Cyc (FIG. 6C)
Experimental: HUVECs were inoculated in a 6-well plate (1×10^6 cells/well) and treated in different glucose conditions. After 48 hours of culture, the supernatant was collected, and the LDH activity was analyzed using an LDH cytotoxicity assay kit.

IL-6 [15] = experiment: Immunohistochemistry of IL-6 in vascular tissue around the fistula; type: in vivo, rat; conditions: 1 mg/kg/day i.p., vs DM group (FIG. 13)
Experimental: as §6

IL-6 [16] = experiment: Western blot of IL-6 in vascular endothelial cells from rat AVF tissue; type: in vivo; conditions: vascular endothelial cells isolated from rat AVF tissue, 1 mg/kg/day i.p. (FIG. 14D, 14E)
Experimental: as §5

IL-6 [17] = experiment: Western blot of IL-6 in high glucose-treated HUVECs; type: cell-based, human; conditions: western blot (FIG. 7D, 7E)
MCP-1 [18] = experiment: ELISA of MCP-1 in peripheral blood plasma of rats; type: in vivo, rat; conditions: 1 mg/kg/day i.p., vs DM group (FIG. 14B)
Experimental: as §1, §2

IL-6 [19] = experiment: ELISA of IL-6 in peripheral blood plasma of rats; type: in vivo, rat; conditions: 1 mg/kg/day i.p., vs DM group (FIG. 14C)
Experimental: as §1, §2

Cleaved caspase 3 = experiment: Immunohistochemistry of Cleaved caspase 3 in vascular tissue around the fistula; type: in vivo, rat; conditions: 1 mg/kg/day i.p., vs DM group (FIG. 13)
TNF-α [20] = experiment: Immunohistochemistry of TNF-α in vascular tissue around the fistula; type: in vivo, rat; conditions: 1 mg/kg/day i.p., vs DM group (FIG. 13)
Experimental: as §6

IL-6 [21] = conditions: HUVECs
Experimental: as §8

SMO [22] = conditions: HUVECs, high glucose; 10 μM; compared with Vis and Gla at the same dosage (FIG. 5A)
Experimental: as §8

[23] = Body weight of diabetic AVF rats; type: in vivo, rat; conditions: 1 mg/kg/day intraperitoneal, DM+Cyc vs DM group (FIG. 9)
Experimental: as §3
(§7) After the construction of the diabetic model. SD rats were used to construct the AVF model. Rats were anesthetized by intraperitoneal injection of chloral hydrate (0.3 mL/100 g) and placed on the operating table during the operation. […]
as §2

TNF-α [24] = experiment: ELISA of TNF-α in HUVEC culture supernatant; type: cell-based, human; conditions: HUVECs treated with 10 μM, ELISA (FIG. 8B)
Experimental: as §4

TNF-α [25] = conditions: HUVECs
Experimental: as §8

diabetic AVF rats [26] = experiment: Hematoxylin-eosin staining of vascular tissue at AVF anastomosis; type: in vivo, rat; conditions: HE staining at AVF anastomosis, 1 mg/kg/day i.p., vs DM group (FIG. 12)
Experimental: as §6, §3
After the construction of the diabetic model. […]

[27] = Blood glucose level of diabetic AVF rats; type: in vivo, rat; conditions: 1 mg/kg/day intraperitoneal, DM+Cyc vs DM group (FIG. 10)
Experimental: as §3, §7, §2

CC1=C2C[C@H]3[C@@H](CC=C4C[C@@H](O)CC[C@@]43C)[C@@H]2CC[C@]12O[C@@H]1C[C@H](C)CN[C@H]1[C@H]2C [Cyc, Cyclopamine]
expression of MCP-1 at protein level (MCP-1 [1]): inhibit | TNF-α in plasma (TNF-α [2]): significantly reduced | expression of MCP-1 at mRNA level (MCP-1 [3]; glucose 5.5-40 mM (FIG. 7C)): inhibit | inhibiting the expression of MCP-1 (MCP-1 [3]; high glucose, 10 μM, compared with Vis and Gla at the same dosage (FIG. 5E)): best effect | apoptosis of cultured PECs (PECs): significantly reduced | blood flow (diabetic AVF rats [4]; color Doppler ultrasound near AVF anastomotic stoma, DM+Cyc vs untreated DM group (FIG. 11A)): faster | diameter of blood vessels in the fistula (diabetic AVF rats [4]; ultrasound at AVF anastomosis, DM+Cyc vs untreated group (FIG. 11B)): increased significantly | level of IL-6 in cell culture supernatant (IL-6 [5]): decreased | expression level of TNF-α (western blot) (TNF-α [6]): significantly reduced | expression level of SMO (western blot) (SMO [7]): significantly reduced | expression level of MCP-1 (immunohistochemistry) (MCP-1 [8]): significantly inhibited | level of MCP-1 in cell culture supernatant (MCP-1 [9]): decreased | expression level of SMO (immunohistochemistry) (SMO [10]): significantly inhibited | apoptosis of HUVECs (HUVECs [11]): significantly reduced | expression level of MCP-1 (western blot) (MCP-1 [12]): significantly reduced | expression of TNF-α at protein level (TNF-α [13]): inhibit | LDH in HUVECs (HUVECs [14]): reduced | expression level of IL-6 (immunohistochemistry) (IL-6 [15]): significantly inhibited | expression level of IL-6 (western blot) (IL-6 [16]): significantly reduced | expression of IL-6 at protein level (IL-6 [17]): inhibit | MCP-1 in plasma (MCP-1 [18]): significantly reduced | IL-6 in plasma (IL-6 [19]): significantly reduced | expression level of Cleaved caspase 3 (immunohistochemistry) (Cleaved caspase 3): significantly inhibited | expression level of TNF-α (immunohistochemistry) (TNF-α [20]): significantly inhibited | expression of IL-6 at mRNA level (IL-6 [21]; glucose 5.5-40 mM (FIG. 7A)): inhibit | inhibiting the expression of IL-6 (IL-6 [21]; high glucose, 10 μM, compared with Vis and Gla at the same dosage (FIG. 5C)): best effect | inhibiting the expression of SMO (SMO [22]): best effect | body weight [23]: remained stable over time | level of TNF-α in cell culture supernatant (TNF-α [24]): decreased | expression of TNF-α at mRNA level (TNF-α [25]; glucose 5.5-40 mM (FIG. 7B)): inhibit | inhibiting the expression of TNF-α (TNF-α [25]; high glucose, 10 μM, compared with Vis and Gla at the same dosage (FIG. 5D)): best effect | intima of blood vessels (diabetic AVF rats [26]): improved | lumen of blood vessels (diabetic AVF rats [26]): significantly enlarged | blood glucose level [27]: lower than that of the DM group
